# Assay results as given in patent US20080145313A1, “Compositions and Methods for the Treatment and Prevention of Neoplastic Disorders” (Genesis Research & Development Corporation Limited, priority 2006, published 2008).
# Test system: target transcript mRNA in A549 cells
# Test: Level of mRNA of target transcript in A549 cells by quantitative RT-PCR (Tables 12 and 13)
# Type: cell-based, human
# Settings: 24 h post-transfection; for mRNA knockdown of energy and metabolism gene target transcript, 0.1 nM: 0.1 nM siRNA; for mRNA knockdown of energy and metabolism gene target transcript, 1 nM: 1 nM siRNA; for mRNA knockdown of energy and metabolism gene target transcript, 10 nM: 10 nM siRNA
# Experimental: A549 cells were transfected as described before with 0.1, 1.0 and 10 nM siRNA as listed in Tables 10 and 11 and the relative mRNA levels quantified 24 h post-transfection. RNA was purified from cells using Trizol® extraction as per the manufacturer's protocol (Invitrogen). cDNA was prepared by digesting approximately 200 ng purified RNA with DNAse I (Invitrogen) for 15 minutes at room temperature, followed by 15 minutes at 65° C. in the presence of 25 mM EDTA. 30 ng random primers were added and incubated for 10 minutes at 65° C., 1 minute on ice; Superscript® III polymerase (Invitrogen) was added in presence of 5 nM DTT (Invitrogen) and 1 mM deoxyribonucleotides (Invitrogen), and the reaction incubated at 25° C. for 5 minutes, followed by an hour at 50° C. cDNA was diluted 1:3 in 10 mM Tris pH 7.0, and quantitative RT-PCR carried out on an ABI Prism 7900HT (Applied Biosciences, Inc., Foster City, Calif.) using FastStart TaqMan SYBRGreen (Roche, Basel, Switzerland) or Platinum SYBR Green (Invitrogen) and 360 nM of the primers specific for gene targets and housekeeping genes HPRT and Lamin. Reduction in target mRNA levels following siRNA transfection are given in Tables 12 and 13, together with the gene specific primer sequences. Primer sequences used for the housekeeping genes HPRT and Lamin are given in SEQ ID NO: 4885-4888.
substance,measurement,value
3545 (ACTACCGCGAGCTGCGCTGGTT; chemistry not given here) [compound 3545],"mRNA knockdown of energy and metabolism gene target transcript, 0.1 nM",++ (70-90% mRNA knockdown)
same,"mRNA knockdown of energy and metabolism gene target transcript, 1 nM",++ (70-90% mRNA knockdown)
same,"mRNA knockdown of energy and metabolism gene target transcript, 10 nM",+++ (>90% mRNA knockdown)
3546 (AACTACCGCGAGCTGCGCTGGTT; chemistry not given here) [compound 3546],"mRNA knockdown of energy and metabolism gene target transcript, 0.1 nM",+ (50-70% mRNA knockdown)
same,"mRNA knockdown of energy and metabolism gene target transcript, 1 nM",++ (70-90% mRNA knockdown)
same,"mRNA knockdown of energy and metabolism gene target transcript, 10 nM",+++ (>90% mRNA knockdown)
3547 (CAACTACCGCGAGCTGCGCTGGTT; chemistry not given here) [compound 3547],"mRNA knockdown of energy and metabolism gene target transcript, 0.1 nM",++ (70-90% mRNA knockdown)
same,"mRNA knockdown of energy and metabolism gene target transcript, 1 nM",++ (70-90% mRNA knockdown)
same,"mRNA knockdown of energy and metabolism gene target transcript, 10 nM",+++ (>90% mRNA knockdown)
3548 (GCAACTACCGCGAGCTGCGCTGGTT; chemistry not given here) [compound 3548],"mRNA knockdown of energy and metabolism gene target transcript, 0.1 nM",++ (70-90% mRNA knockdown)
same,"mRNA knockdown of energy and metabolism gene target transcript, 1 nM",++ (70-90% mRNA knockdown)
same,"mRNA knockdown of energy and metabolism gene target transcript, 10 nM",+++ (>90% mRNA knockdown)
3549 (GGCAACTACCGCGAGCTGCGCTGGTT; chemistry not given here) [compound 3549],"mRNA knockdown of energy and metabolism gene target transcript, 0.1 nM",+ (50-70% mRNA knockdown)
same,"mRNA knockdown of energy and metabolism gene target transcript, 1 nM",+++ (>90% mRNA knockdown)
same,"mRNA knockdown of energy and metabolism gene target transcript, 10 nM",++ (70-90% mRNA knockdown)
3550 (AGGCAACTACCGCGAGCTGCGCTGGTT; chemistry not given here) [compound 3550],"mRNA knockdown of energy and metabolism gene target transcript, 0.1 nM",++ (70-90% mRNA knockdown)
same,"mRNA knockdown of energy and metabolism gene target transcript, 1 nM",++ (70-90% mRNA knockdown)
same,"mRNA knockdown of energy and metabolism gene target transcript, 10 nM",+++ (>90% mRNA knockdown)
3551 (AAGGCAACTACCGCGAGCTGCGCTGGTT; chemistry not given here) [compound 3551],"mRNA knockdown of energy and metabolism gene target transcript, 0.1 nM",++ (70-90% mRNA knockdown)
same,"mRNA knockdown of energy and metabolism gene target transcript, 1 nM",− (<50% mRNA knockdown)
3552 (GAAGGCAACTACCGCGAGCTGCGCTGGTT; chemistry not given here) [compound 3552],"mRNA knockdown of energy and metabolism gene target transcript, 0.1 nM",+ (50-70% mRNA knockdown)
same,"mRNA knockdown of energy and metabolism gene target transcript, 1 nM",++ (70-90% mRNA knockdown)
3553 (TGAAGGCAACTACCGCGAGCTGCGCTGGTT; chemistry not given here) [compound 3553],"mRNA knockdown of energy and metabolism gene target transcript, 0.1 nM",++ (70-90% mRNA knockdown)
same,"mRNA knockdown of energy and metabolism gene target transcript, 1 nM",++ (70-90% mRNA knockdown)
3554 (CGGATGTTGGGATCATTATTA; chemistry not given here) [compound 3554],"mRNA knockdown of energy and metabolism gene target transcript, 0.1 nM",++ (70-90% mRNA knockdown)
same,"mRNA knockdown of energy and metabolism gene target transcript, 1 nM",++ (70-90% mRNA knockdown)
3555 (ACGGATGTTGGGATCATTATTA; chemistry not given here) [compound 3555],"mRNA knockdown of energy and metabolism gene target transcript, 0.1 nM",++ (70-90% mRNA knockdown)
same,"mRNA knockdown of energy and metabolism gene target transcript, 1 nM",++ (70-90% mRNA knockdown)
3556 (TACGGATGTTGGGATCATTATTA; chemistry not given here) [compound 3556],"mRNA knockdown of energy and metabolism gene target transcript, 0.1 nM",++ (70-90% mRNA knockdown)
same,"mRNA knockdown of energy and metabolism gene target transcript, 1 nM",++ (70-90% mRNA knockdown)
3557 (CTACGGATGTTGGGATCATTATTA; chemistry not given here) [compound 3557],"mRNA knockdown of energy and metabolism gene target transcript, 0.1 nM",++ (70-90% mRNA knockdown)
same,"mRNA knockdown of energy and metabolism gene target transcript, 1 nM",++ (70-90% mRNA knockdown)
3558 (GCTACGGATGTTGGGATCATTATTA; chemistry not given here) [compound 3558],"mRNA knockdown of energy and metabolism gene target transcript, 0.1 nM",− (<50% mRNA knockdown)
same,"mRNA knockdown of energy and metabolism gene target transcript, 1 nM",++ (70-90% mRNA knockdown)
3559 (GGCTACGGATGTTGGGATCATTATTA; chemistry not given here) [compound 3559],"mRNA knockdown of energy and metabolism gene target transcript, 0.1 nM",++ (70-90% mRNA knockdown)
same,"mRNA knockdown of energy and metabolism gene target transcript, 1 nM",++ (70-90% mRNA knockdown)
3560 (CGGCTACGGATGTTGGGATCATTATTA; chemistry not given here) [compound 3560],"mRNA knockdown of energy and metabolism gene target transcript, 0.1 nM",++ (70-90% mRNA knockdown)
same,"mRNA knockdown of energy and metabolism gene target transcript, 1 nM",++ (70-90% mRNA knockdown)
3561 (GCGGCTACGGATGTTGGGATCATTATTA; chemistry not given here) [compound 3561],"mRNA knockdown of energy and metabolism gene target transcript, 0.1 nM",+ (50-70% mRNA knockdown)
same,"mRNA knockdown of energy and metabolism gene target transcript, 1 nM",++ (70-90% mRNA knockdown)
3562 (TGCGGCTACGGATGTTGGGATCATTATTA; chemistry not given here) [compound 3562],"mRNA knockdown of energy and metabolism gene target transcript, 0.1 nM",++ (70-90% mRNA knockdown)
same,"mRNA knockdown of energy and metabolism gene target transcript, 1 nM",+++ (>90% mRNA knockdown)
3563 (ATGCGGCTACGGATGTTGGGATCATTATTA; chemistry not given here) [compound 3563],"mRNA knockdown of energy and metabolism gene target transcript, 0.1 nM",++ (70-90% mRNA knockdown)
same,"mRNA knockdown of energy and metabolism gene target transcript, 1 nM",+++ (>90% mRNA knockdown)
3564 (GCAAGAACGGTGGGATTTACT; chemistry not given here) [compound 3564],"mRNA knockdown of energy and metabolism gene target transcript, 0.1 nM",++ (70-90% mRNA knockdown)
same,"mRNA knockdown of energy and metabolism gene target transcript, 1 nM",+++ (>90% mRNA knockdown)
3565 (AGCAAGAACGGTGGGATTTACT; chemistry not given here) [compound 3565],"mRNA knockdown of energy and metabolism gene target transcript, 0.1 nM",++ (70-90% mRNA knockdown)
same,"mRNA knockdown of energy and metabolism gene target transcript, 1 nM",+++ (>90% mRNA knockdown)
3572 (GGTCACCAGCAAGAACGGTGGGATTTACT; chemistry not given here) [compound 3572],"mRNA knockdown of energy and metabolism gene target transcript, 0.1 nM",+ (50-70% mRNA knockdown)
same,"mRNA knockdown of energy and metabolism gene target transcript, 1 nM",++ (70-90% mRNA knockdown)
3573 (TGGTCACCAGCAAGAACGGTGGGATTTACT; chemistry not given here) [compound 3573],"mRNA knockdown of energy and metabolism gene target transcript, 0.1 nM",++ (70-90% mRNA knockdown)
same,"mRNA knockdown of energy and metabolism gene target transcript, 1 nM",+++ (>90% mRNA knockdown)
3574 (GCGGTTTTTCTCCAAGTACTC; chemistry not given here) [compound 3574],"mRNA knockdown of energy and metabolism gene target transcript, 0.1 nM",++ (70-90% mRNA knockdown)
same,"mRNA knockdown of energy and metabolism gene target transcript, 1 nM",+++ (>90% mRNA knockdown)
3575 (AGCGGTTTTTCTCCAAGTACTC; chemistry not given here) [compound 3575],"mRNA knockdown of energy and metabolism gene target transcript, 0.1 nM",+++ (>90% mRNA knockdown)
same,"mRNA knockdown of energy and metabolism gene target transcript, 1 nM",+++ (>90% mRNA knockdown)
3576 (AAGCGGTTTTTCTCCAAGTACTC; chemistry not given here) [compound 3576],"mRNA knockdown of energy and metabolism gene target transcript, 0.1 nM",+++ (>90% mRNA knockdown)
same,"mRNA knockdown of energy and metabolism gene target transcript, 1 nM",+++ (>90% mRNA knockdown)
3577 (GAAGCGGTTTTTCTCCAAGTACTC; chemistry not given here) [compound 3577],"mRNA knockdown of energy and metabolism gene target transcript, 0.1 nM",++ (70-90% mRNA knockdown)
same,"mRNA knockdown of energy and metabolism gene target transcript, 1 nM",+++ (>90% mRNA knockdown)
